Measured values reported in patent publication US20240210736A1, “MOUSE MYOPIA-INDUCED MODEL AND ENDOPLASMIC RETICULUM STRESS SUPPRESSANT FOR PREVENTING AND SUPPRESSING MYOPIA” (TSUBOTA LABORATORY, INC., priority 2017, published 2024).

Assays:
[1] = tested on: mouse myopia-induced model; experiment: Mouse myopia-induced model (−30 D minus lens): suppression of myopia induction; details: for refractive value variation of lens-worn myopia-induced eyes vs PBS administered group / axial length of the eye variation of lens-worn myopia-induced eyes vs PBS administered group: three weeks; for refractive value variation of lens-worn myopia-induced eyes vs PBS administered group: FIG. 6 left; for axial length of the eye variation of lens-worn myopia-induced eyes vs PBS administered group: FIG. 6 right; for difference of variation in refractive value between lens-worn eyes and control eyes / difference of variation in axial length of the eye between lens-worn eyes and control eyes: 50 μM in PBS; for difference of variation in refractive value between lens-worn eyes and control eyes: FIG. 8A right graph; for difference of variation in axial length of the eye between lens-worn eyes and control eyes: FIG. 8B right graph
Procedure: Specifically, the mouse myopia-induced model is prepared as follows. Because it is easier to induce myopia to a juvenile mouse, it is preferable to mount the minus lens as soon as possible after the weaning. A 3-week-old C57BL6J is used here. The mouse is anesthetized with three types-mixed anesthetic of Domitor (Nippon Zenyaku Kogyo Co., Ltd.), Betorphal (Meiji Seika Pharma Co., Ltd.), and Midazolam (Sandoz K. K.). The skull is then opened with scissors. A post 1 is erected in the skull and fixed with dental cement (Super-Bond, Sun Medical Co., Ltd.). The post is threaded to fix an adjusting instrument described later with a nut.
To induce myopia, −30 diopter (D) minus lens (Rainbow contact, Rainbow Optical Laboratory Co., Ltd.) 2 is mounted on one side, and 0 D lens or only frame 3 is mounted on the other side as a control. A protector 4 having a laterally projected shape is mounted to a frame part in the lower portion of the lens to prevent the mouse from damaging the lens with its forelegs or the like when mounting the lens to the mouse. The protector 4 prevents the mouse from touching the lens, causing no damages on the lens. The protector 4 used here is in the form mounted to the frame part and integrated with it, although it needs not be integrated with the lens as long as the mouse behavior will not damage the lens.
An adjusting instrument 5 is bonded to a frame part in the upper portion of the lens to adjust the width and angle of the mounted lens in response to the growth of the mouse. The adjusting instrument 5 is folded in a dog leg shape. The adjusting instrument 5 includes one side mounted with the lens and the other side provided with a slot 6 for mounting the adjusting instrument 5 to the post 1 erected in the head. Putting the post 1 over the slot 6 and screwing it with a nut 7 can adhere and fix the adjusting instrument 5 to the skin without compressing the periphery of both eyes of the mouse.
An adjustment mechanism including three parts of the post 1, the nut 7, and the adjusting instrument 5 can adjust the width and angle to bring the lens to the mouse eye position in response to the growth of the mouse. Further, because the lens is detachable, it is possible to measure the change over time of the axial length of the eye and the refractive value.
The left eye was worn with only a frame as a control and the right eye was worn with a −30 D lens for three weeks. The refractive value, the axial length of the eye, and the sclera thickness were measured to find the differences between before and after wearing them. The refractive value was measured with a refractometer (Infrared photorefractor for mice, made by Proffesor Schaeffel, University of Tubingen). The axial length of the eye was measured with an SD-OCT (Spectral-Domain Optical Coherence Tomography, Envisu R4310, Bioptigen Inc.). The sclera thickness was measured by obtaining an optical image of a hematoxylin and eosin (HE) stained paraffin piece by an optical microscope (BX53, Olympus Corporation) and then using an imaging software cellSens. The results were analyzed with ANOVA, Turky HSD.
Then, an analysis was conducted to check for suppression of myopia induction by administration of endoplasmic reticulum stress suppressant. […] Note that only phosphate-buffered saline (PBS) was administered to the control group.

[2] = tested on: mouse eye; experiment: Induction of myopia by eye drop of endoplasmic reticulum stress inducer; type: in vivo, C57BL6J mouse; details: single eye drop, right eye, one week after administration, FIG. 7
Procedure: Because the endoplasmic reticulum stress suppressant has a suppression effect on myopia induction as describe above, it is considered that the endoplasmic reticulum stress directly participates in myopia induction. Then, an analysis was conducted to check for induction of myopia by administration of an agent for inducing endoplasmic reticulum stress. The subject was a 3-week-old male C57BL6J mouse (n=12). The right eye of the mouse was administered once by eye drop with 50 μg/ml of tunicamycin (Tm) (Sigma-Aldrich Co. LLC) or 10 μM of thapsigargin (TG) (Wako Pure Chemical Industries, Ltd.), and the left eye was administered once by eye drop with PBS (Veh).

[3] = 0.2% solution in PBS, eye drop once a day, n=4
[4] = 2% solution in PBS, eye drop once a day, n=4
[5] = eye drop once a day, one week, n=3

sodium phenylbutyrate
refractive value variation of lens-worn myopia-induced eyes vs PBS administered group [1, 3]: showed a tendency to suppress changes | axial length of the eye variation of lens-worn myopia-induced eyes vs PBS administered group [1, 3]: showed a tendency to suppress changes | variation in the refractive value, −30 D lens-worn eyes vs only frame-worn eyes ([1]; 200 mg/kg/day intraperitoneal, day 2 to 21 after wearing the lens, measured on day 21, FIG. 4A): no changes were recognized in the refractive value | changes in the axial length of the eye, minus lens-worn eyes vs only frame-worn eyes ([1]; 200 mg/kg/day intraperitoneal, day 2 to 21 after wearing the lens, measured on day 21, FIG. 4B): no difference was recognized in the extension | extension of the normal axial length of the eye associated with the growth ([1]; 200 mg/kg/day intraperitoneal, one week and three weeks after wearing the lens, FIG. 4C): does not affect the extension of the normal axial length of the eye associated with the growth | refractive value variation of lens-worn myopia-induced eyes vs PBS administered group [1, 4]: significant differences were recognized | axial length of the eye variation of lens-worn myopia-induced eyes vs PBS administered group [1, 4]: significant differences were recognized

Cc1c(O)cccc1C(=O)N[C@@H](CSc1ccccc1)[C@H](O)CN1C[C@H]2CCCC[C@H]2C[C@H]1C(=O)NC(C)(C)C [Nelfinavir]
difference of variation in refractive value between lens-worn eyes and control eyes [1, 5]: significant decrease in difference of variation | difference of variation in axial length of the eye between lens-worn eyes and control eyes [1, 5]: significant decrease in difference of variation

C[C@H](CCC(=O)NCCS(=O)(=O)O)[C@H]1CC[C@H]2[C@@H]3[C@@H](O)C[C@@H]4C[C@H](O)CC[C@]4(C)[C@H]3CC[C@]12C [tauroursodeoxycholic acid, Tauroursodeoxycholic acid]
changes in the refractive value, −30 D lens-worn eyes vs only frame-worn eyes ([1]; 100 mg/kg once a day intraperitoneal, one week after wearing the lens, n=4, FIG. 5 left): no differences were recognized between both types of eyes | changes in the axial length of the eye of myopia-induced eyes vs PBS administered group ([1]; 100 mg/kg once a day intraperitoneal, one week after wearing the lens, n=4, FIG. 5 right): significant changes were recognized in the axial length of the eye

C/C=C(/C)C(=O)O[C@H]1C(C)=C2[C@H]([C@@H]1OC(=O)CCCCCCC)[C@@](C)(OC(C)=O)C[C@H](OC(=O)CCC)[C@@]1(O)[C@H]2OC(=O)[C@@]1(C)O [thapsigargin]
axial length of the eye variation vs PBS administered eyes (myopia induction) ([2]; 10 μM): significant differences were recognized | refractive value variation vs PBS administered eyes (myopia induction) ([2]; 10 μM): significant differences were recognized

tunicamycin
axial length of the eye variation vs PBS administered eyes (myopia induction) ([2]; 50 μg/ml): significant differences were recognized | refractive value variation vs PBS administered eyes (myopia induction) ([2]; 50 μg/ml): significant differences were recognized

Cc1cccc(CC(=O)N2CCc3c2ccc(-c2cn(C)c4ncnc(N)c24)c3F)n1 [GSK2656157]
difference of variation in refractive value between lens-worn eyes and control eyes [1, 5]: significant decrease in difference of variation | difference of variation in axial length of the eye between lens-worn eyes and control eyes [1, 5]: significant decrease in difference of variation

O=S(=O)(N=Cc1c(O)ccc2ccccc12)c1cccs1 [STF-083010]
refractive value variation, lens-worn eye against lens-unworn control eye ([1]; 60 μM in PBS, eye drop once a day, one week, n=3, FIG. 8A): showed significant changes | axial length of the eye variation, lens-worn eye against lens-unworn control eye ([1]; 60 μM in PBS, eye drop once a day, one week, n=3, FIG. 8B): showed significant changes
